From PubChem BioAssay (NCI)
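These data come from cells grown in 96-well plates and exposed to compound for 48 hours at five concentrations. TGI is the concentration that stops growth completely.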

These molecules were tested on SR leukemia (assay: growth of human tumour cells (NCI), 48 h).
For Cc1ccc(-n2c(=O)c3nn4c(=O)n(-c5ccc(C)cc5)c(=O)c4nn3c2=O)cc1, the TGI was > 100 µM.
With CN(CCCCCl)P(=O)(OCC1=CC(=O)c2ccccc2C1=O)OC[C@H]1O[C@@H](n2cc(F)c(=O)[nH]c2=O)C[C@@H]1O (some centres undefined) the TGI was 28.9 µM.

Each molecule was assayed on NCI/ADR-RES ovarian (assay: growth of human tumour cells (NCI), 48 h).
For Cc1ccc(S(=O)(=O)NC(=O)NC(C(=O)O)C(C)C)cc1 (centres undefined), the TGI was > 100 µM.
With Cc1ccc(-n2c(=O)c3nn4c(=O)n(-c5ccc(C)cc5)c(=O)c4nn3c2=O)cc1 the TGI was > 100 µM.

What follows are molecules tested on NCI-H23 lung (assay: growth of human tumour cells (NCI), 48 h).
In the case of Cc1ccc(S(=O)(=O)NC(=O)NC(C(=O)O)C(C)C)cc1 (centres undefined), the TGI is reported as > 100 µM.
For Cc1nn(C(=O)c2ccccc2O)c2c1C(c1ccc3ccccc3c1O)SC(N)=N2 (centres undefined), the TGI was > 10 µM.
With COc1cc(OC)c2c(c1-c1ccc(C)cc1)CC(C)N(Cc1ccccc1)[C@H]2C (some centres undefined) the TGI was > 100 µM.
For Cc1ccc(-n2c(=O)c3nn4c(=O)n(-c5ccc(C)cc5)c(=O)c4nn3c2=O)cc1, the TGI was > 100 µM.
For CN(CCCCCl)P(=O)(OCC1=CC(=O)c2ccccc2C1=O)OC[C@H]1O[C@@H](n2cc(F)c(=O)[nH]c2=O)C[C@@H]1O (some centres undefined), the TGI was 5.07 µM.

The molecules below were run on SK-OV-3 ovarian (assay: growth of human tumour cells (NCI), 48 h).
In the case of Cc1ccc(S(=O)(=O)NC(=O)NC(C(=O)O)C(C)C)cc1 (centres undefined), the TGI is reported as > 100 µM.
For Cc1nn(C(=O)c2ccccc2O)c2c1C(c1ccc3ccccc3c1O)SC(N)=N2 (centres undefined), the TGI was > 10 µM.
In the case of COc1cc(OC)c2c(c1-c1ccc(C)cc1)CC(C)N(Cc1ccccc1)[C@H]2C (some centres undefined), the TGI is reported as > 100 µM.
With Cc1ccc(-n2c(=O)c3nn4c(=O)n(-c5ccc(C)cc5)c(=O)c4nn3c2=O)cc1 the TGI was > 100 µM.
For CN(CCCCCl)P(=O)(OCC1=CC(=O)c2ccccc2C1=O)OC[C@H]1O[C@@H](n2cc(F)c(=O)[nH]c2=O)C[C@@H]1O (some centres undefined), the TGI was > 42.8 µM.

Each molecule was assayed on CAKI-1 renal (assay: growth of human tumour cells (NCI), 48 h).
With Cc1nn(C(=O)c2ccccc2O)c2c1C(c1ccc3ccccc3c1O)SC(N)=N2 (centres undefined) the TGI was > 10 µM.
COc1cc(OC)c2c(c1-c1ccc(C)cc1)CC(C)N(Cc1ccccc1)[C@H]2C (some centres undefined) was tested, and the TGI was > 100 µM.
With Cc1ccc(-n2c(=O)c3nn4c(=O)n(-c5ccc(C)cc5)c(=O)c4nn3c2=O)cc1 the TGI was > 100 µM.
CN(CCCCCl)P(=O)(OCC1=CC(=O)c2ccccc2C1=O)OC[C@H]1O[C@@H](n2cc(F)c(=O)[nH]c2=O)C[C@@H]1O (some centres undefined) was tested, and the TGI was 0.627 µM.

What follows are molecules tested on M14 melanoma (assay: growth of human tumour cells (NCI), 48 h).
For Cc1ccc(S(=O)(=O)NC(=O)NC(C(=O)O)C(C)C)cc1 (centres undefined), the TGI was > 100 µM.
Cc1nn(C(=O)c2ccccc2O)c2c1C(c1ccc3ccccc3c1O)SC(N)=N2 (centres undefined) was tested, and the TGI was > 10 µM.
For COc1cc(OC)c2c(c1-c1ccc(C)cc1)CC(C)N(Cc1ccccc1)[C@H]2C (some centres undefined), the TGI was > 100 µM.
For Cc1ccc(-n2c(=O)c3nn4c(=O)n(-c5ccc(C)cc5)c(=O)c4nn3c2=O)cc1, the TGI was > 100 µM.
CN(CCCCCl)P(=O)(OCC1=CC(=O)c2ccccc2C1=O)OC[C@H]1O[C@@H](n2cc(F)c(=O)[nH]c2=O)C[C@@H]1O (some centres undefined) gave a TGI of 3.52 µM.

These molecules were tested on EKVX NSCLC (assay: growth of human tumour cells (NCI), 48 h).
For Cc1nn(C(=O)c2ccccc2O)c2c1C(c1ccc3ccccc3c1O)SC(N)=N2 (centres undefined), the TGI was > 10 µM.
For COc1cc(OC)c2c(c1-c1ccc(C)cc1)CC(C)N(Cc1ccccc1)[C@H]2C (some centres undefined), the TGI was > 100 µM.
Cc1ccc(-n2c(=O)c3nn4c(=O)n(-c5ccc(C)cc5)c(=O)c4nn3c2=O)cc1 was tested, and the TGI was > 100 µM.
Work on CN(CCCCCl)P(=O)(OCC1=CC(=O)c2ccccc2C1=O)OC[C@H]1O[C@@H](n2cc(F)c(=O)[nH]c2=O)C[C@@H]1O (some centres undefined) yielded a TGI of 21.2 µM.

What follows are molecules tested on SN12C renal (assay: growth of human tumour cells (NCI), 48 h).
With Cc1ccc(S(=O)(=O)NC(=O)NC(C(=O)O)C(C)C)cc1 (centres undefined) the TGI was > 100 µM.
With Cc1nn(C(=O)c2ccccc2O)c2c1C(c1ccc3ccccc3c1O)SC(N)=N2 (centres undefined) the TGI was > 10 µM.
For COc1cc(OC)c2c(c1-c1ccc(C)cc1)CC(C)N(Cc1ccccc1)[C@H]2C (some centres undefined), the TGI was > 100 µM.
In the case of Cc1ccc(-n2c(=O)c3nn4c(=O)n(-c5ccc(C)cc5)c(=O)c4nn3c2=O)cc1, the TGI is reported as > 100 µM.
Work on CN(CCCCCl)P(=O)(OCC1=CC(=O)c2ccccc2C1=O)OC[C@H]1O[C@@H](n2cc(F)c(=O)[nH]c2=O)C[C@@H]1O (some centres undefined) yielded a TGI of 1.21 µM.

The molecules below were run on T-47D breast (assay: growth of human tumour cells (NCI), 48 h).
With Cc1ccc(S(=O)(=O)NC(=O)NC(C(=O)O)C(C)C)cc1 (centres undefined) the TGI was > 100 µM.
Work on Cc1nn(C(=O)c2ccccc2O)c2c1C(c1ccc3ccccc3c1O)SC(N)=N2 (centres undefined) yielded a TGI of 8.93 µM.
